As a reminder, the pIC50 is the IC50 on a negative log10 scale, so that one unit is a factor of ten. A higher pIC50 goes with a small IC50.

pIC50: −log10 of the molar value. Counter-ions that a name gives are not always drawn.

In the experiment the target is T1, ALK (baculovirus expressed human ALK kinase domain F1098-K1410) (Homo sapiens, UniProt Q9UM73).
T1 construct: baculovirus expressed human ALK kinase domain F1098-K1410; made in house
T1 sequence (Q9UM73 1098-1410): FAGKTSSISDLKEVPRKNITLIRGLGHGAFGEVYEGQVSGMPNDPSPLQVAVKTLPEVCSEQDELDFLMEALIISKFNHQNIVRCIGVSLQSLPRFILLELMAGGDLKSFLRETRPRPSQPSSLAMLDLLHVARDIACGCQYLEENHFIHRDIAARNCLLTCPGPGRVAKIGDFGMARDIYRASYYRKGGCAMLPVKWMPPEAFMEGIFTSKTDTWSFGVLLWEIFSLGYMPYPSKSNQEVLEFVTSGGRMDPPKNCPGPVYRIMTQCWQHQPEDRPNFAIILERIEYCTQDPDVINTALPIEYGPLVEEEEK
The experiment can be described thus: Luciferase-Coupled Chemiluminescent Kinase assay (LCCA), ALK biochemical activity. The conditions noted are these: inhibition of ALK; mean values; 1 μM ATP, 4 μM poly-AEKY, 12 nM ALK, 2 hours ambient temperature. How it is done: ALK biochemical activity was assessed using a Luciferase-Coupled Chemiluminescent Kinase assay (LCCA) format in which kinase activity was measured as the percent ATP remaining following the kinase reaction. ATP remaining after the kinase reaction was detected by luciferase-luciferin-coupled chemiluminescence.
The reaction was initiated by mixing test compounds, 1 μM ATP, 4 μM poly-AEKY and 12 nM ALK (baculovirus expressed human ALK kinase domain F1098-K1410) in a 20 μL assay buffer ([…] pH 7.5, 10 mM MgCl2, 0.02% Triton X-100, 100 mM DTT, 2 mM MnCl2). The mixture was incubated at ambient temperature for 2 hours after which 20 μL luciferase-luciferin mix was added and the chemiluminescent signal read using a Wallac Victor^2 reader. The luciferase-luciferin mix consists of 50 mM HEPES, pH 7.8, 8.5 μg/mL oxalic acid (pH 7.8), 5 (or 50) mM DTT, 0.4% Triton X-100, 0.25 mg/mL coenzyme A, 63 μM AMP, 28 μg/mL luciferin and 40,000 units of light/mL luciferase.
Consumption of ATP by ALK can thus be quantified and utilized as a measure of inhibition of ALK activity by compounds described herein. By employing serial dilutions of compounds to be tested, the ability of test compounds to inhibit ALK activity can be determined.
`COc1cc2c(-c3ccc(O)cc3)nc3[nH]nc(Cc4cccc(C)c4)c3c2cc1OC` [Example 14, hydrochloride]: the pIC50 was 6.00 to 7.00.

With `COc1cc2c(-c3ccc(O)cc3)nc3[nH]nc(C)c3c2cc1OC` [Example 15, trifluoroacetate], the negative-log IC50 (pIC50) is ≥ 7.00.

For the compound `COc1cc2c(c(-c3ccc(O)cc3)nc3[nH]nc(Cc4ccccc4)c32)c(OC)c1OC` [Example 24, 4-[6,7,8-tris(methyloxy)-1-(phenylmethyl)-3H-pyrazolo[3,4-c]isoquinolin-5-yl]phenol], the pIC50 was ≥ 7.00.

In the case of `COc1cc2c(c(-c3ccc(O)cc3)nc3[nH]nc(C)c32)c(OC)c1OC` [Example 25, 4-[1-methyl-6,7,8-tris(methyloxy)-3H-pyrazolo[3,4-c]isoquinolin-5-yl]phenol], the pIC50 was ≥ 7.00.

In the case of `COc1ccc2c(-c3ccc(O)cc3)nc3[nH]nc(Cc4ccccc4)c3c2c1` [Example 26, 4-[8-(methyloxy)-1-(phenylmethyl)-3H-pyrazolo[3,4-c]isoquinolin-5-yl]phenol], the pIC50 is 6.00 to 7.00.

`COc1cc2c(-c3ccc(O)cc3)nc3[nH]nc(C(F)(F)F)c3c2cc1OC` [Example 27, 4-[7,8-bis(methyloxy)-1-(trifluoromethyl)-3H-pyrazolo[3,4-c]isoquinolin-5-yl]phenol] showed a pIC50 of 6.00 to 7.00.

For the compound `COc1cc2c(-c3ccc(O)cc3)nc3[nH]nc(C(C)C)c3c2cc1OC` [Example 28, 4-[1-(1-methylethyl)-7,8-bis(methyloxy)-3H-pyrazolo[3,4-c]isoquinolin-5-yl]phenol], the pIC50 is 6.00 to 7.00.

`COc1cc2c(-c3ccc(O)cc3)nc3[nH]ncc3c2cc1OC` [Example 29, 4-[7,8-bis(methyloxy)-3H-pyrazolo[3,4-c]isoquinolin-5-yl]phenol]: the negative logarithm of the IC50 (pIC50) is 6.00 to 7.00.

As for `COc1cc(OC)c2c(-c3ccc(O)cc3)nc3[nH]nc(C)c3c2c1` [Example 31, 4-[1-methyl-6,8-bis(methyloxy)-3H-pyrazolo[3,4-c]isoquinolin-5-yl]phenol], the pIC50 is ≥ 7.00.

For `COc1cc(OC)c2c(-c3ccc(O)cc3)nc3[nH]ncc3c2c1` [Example 32, 4-[6,8-bis(methyloxy)-3H-pyrazolo[3,4-c]isoquinolin-5-yl]phenol], the pIC50 was 6.00 to 7.00.

In the case of `COc1cc2c(c(-c3ccc(O)cc3)nc3[nH]ncc32)c(OC)c1OC` [Example 34, 4-[6,7,8-tris(methyloxy)-3H-pyrazolo[3,4-c]isoquinolin-5-yl]phenol], the pIC50 is ≥ 7.00.

Consider `COc1cc2c(-c3ccc(O)cc3)nc3[nH]nc(C)c3c2c(OC)c1OC` [Example 35, 4-[1-methyl-7,8,9-tris(methyloxy)-3H-pyrazolo[3,4-c]isoquinolin-5-yl]phenol], for which the negative-log IC50 (pIC50) is ≥ 7.00.

As for `COc1ccc2c(-c3ccc(O)cc3)nc3[nH]nc(C)c3c2c1` [Example 36, 4-[1-methyl-8-(methyloxy)-3H-pyrazolo[3,4-c]isoquinolin-5-yl]phenol], the pIC50 was ≥ 7.00.

As for `COc1cc2c(-c3ccc(O)c(C)c3)nc3[nH]nc(C)c3c2cc1OC` [Example 37, 2-methyl-4-[1-methyl-7,8-bis(methyloxy)-3H-pyrazolo[3,4-c]isoquinolin-5-yl]phenol], the pIC50 was ≥ 7.00.

Compound `COc1cc(-c2nc3[nH]nc(C)c3c3cc(OC)c(OC)cc23)ccc1O` [Example 38, 4-[1-methyl-7,8-bis(methyloxy)-3H-pyrazolo[3,4-c]isoquinolin-5-yl]-2-(methyloxy)phenol] showed a negative-log IC50 (pIC50) of 6.00 to 7.00.

In the case of `COc1cc2c(cc1OCCN1CCOCC1)c(-c1ccc(O)cc1)nc1[nH]nc(C)c12` [Example 39, 4-{1-methyl-8-(methyloxy)-7-[(2-morpholin-4-ylethyl)oxy]-3H-pyrazolo[3,4-c]isoquinolin-5-yl}phenol], the pIC50 is 6.00 to 7.00.

Compound `CCOc1cc(-c2nc3[nH]nc(C)c3c3cc(OC)c(OC)cc23)ccc1O` [Example 40, 2-(ethyloxy)-4-[1-methyl-7,8-bis(methyloxy)-3H-pyrazolo[3,4-c]isoquinolin-5-yl]phenol] showed a pIC50 of 6.00 to 7.00.

On to `COc1cc2c(-c3ccc(O)c(Cl)c3)nc3[nH]nc(C)c3c2cc1OC` [Example 41, 2-chloro-4-[1-methyl-7,8-bis(methyloxy)-3H-pyrazolo[3,4-c]isoquinolin-5-yl]phenol], for which the pIC50 is ≥ 7.00.

In the case of `COc1cc2c(-c3ccc(O)c(F)c3)nc3[nH]nc(C)c3c2cc1OC` [Example 42, 2-fluoro-4-[1-methyl-7,8-bis(methyloxy)-3H-pyrazolo[3,4-c]isoquinolin-5-yl]phenol], the pIC50 is 6.00 to 7.00.

`COc1cc2c(-c3ccc(O)c(Br)c3)nc3[nH]nc(C)c3c2cc1OC` [Example 44, 2-bromo-4-[1-methyl-7,8-bis(methyloxy)-3H-pyrazolo[3,4-c]isoquinolin-5-yl]phenol]: the pIC50 was ≥ 7.00.

The compound `COc1cc2c(-c3ccc(O)cc3)nc3[nH]nc(CN4CCCC4=O)c3c2cc1OC` [Example 45, 1-{[5-(4-hydroxyphenyl)-7,8-bis(methyloxy)-3H-pyrazolo[3,4-c]isoquinolin-1-yl]methyl}pyrrolidin-2-one] showed a pIC50 of 6.00 to 7.00.

In the case of `COc1cc2c(-c3ccc(O)cc3)nc3[nH]nc(C)c3c2cc1OCC1CCNCC1` [Example 54, 4-{1-methyl-7-(methyloxy)-8-[(piperidin-4-ylmethyl)oxy]-3H-pyrazolo[3,4-c]isoquinolin-5-yl}phenol], the pIC50 is ≥ 7.00.

For `COc1cc2c(cc1OCC1CCNCC1)c(-c1ccc(O)cc1)nc1[nH]nc(C)c12` [Example 55, 4-{1-methyl-8-(methyloxy)-7-[(piperidin-4-ylmethyl)oxy]-3H-pyrazolo[3,4-c]isoquinolin-5-yl}phenol], the pIC50 was 6.00 to 7.00.

On to `CCOc1cc2c(cc1OC)c(-c1ccc(O)cc1)nc1[nH]nc(C)c12` [Example 58, 4-[8-(ethyloxy)-1-methyl-7-(methyloxy)-3H-pyrazolo[3,4-c]isoquinolin-5-yl]phenol], for which the pIC50 is 6.00 to 7.00.

As for `COc1ccc2c(-c3ccc(O)cc3)nc3[nH]nc(C)c3c2c1OC` [Example 59, 4-[1-methyl-8,9-bis(methyloxy)-3H-pyrazolo[3,4-c]isoquinolin-5-yl]phenol], the pIC50 is ≥ 7.00.

`CCOc1cc2c(-c3ccc(O)cc3)nc3[nH]nc(C)c3c2cc1OC` [Example 60, 4-[7-(ethyloxy)-1-methyl-8-(methyloxy)-3H-pyrazolo[3,4-c]isoquinolin-5-yl]phenol]: the negative-log IC50 (pIC50) was 6.00 to 7.00.

On to `COc1ccc2c(-c3ccc(O)cc3)nc3[nH]nc(C)c3c2c1OCC1CCNCC1` [Example 61, 4-{1-methyl-8-(methyloxy)-9-[(piperidin-4-ylmethyl)oxy]-3H-pyrazolo[3,4-c]isoquinolin-5-yl}phenol], for which the pIC50 is ≥ 7.00.

Compound `CCc1cc(-c2nc3[nH]nc(C)c3c3cc(OC)c(OC)cc23)ccc1O` [Example 63, 2-ethyl-4-[1-methyl-7,8-bis(methyloxy)-3H-pyrazolo[3,4-c]isoquinolin-5-yl]phenol] gave a negative-log IC50 (pIC50) of 6.00 to 7.00.

On to `COc1ccc2c(-c3ccc(O)cc3)nc3[nH]nc(C)c3c2c1OCC1CCN(C)CC1` [Example 64, 4-(1-methyl-8-(methyloxy)-9-{[(1-methylpiperidin-4-yl)methyl]oxy}-3H-pyrazolo[3,4-c]isoquinolin-5-yl)phenol], for which the pIC50 is ≥ 7.00.

These data come from patent US7872014B2, “Anaplastic lymphoma kinase modulators and methods of use” (Exelixis, Inc., priority 2003, dated 2011).
